In patent US20250092031A1, “RIPK3 INHIBITORS AND METHODS OF USE” (Momentum Therapeutics, Inc., priority 2023, published 2025):

Columns and labels:
[1] = test system: Murine L929 cells; experiment: Necroptosis inhibition assay in L929 cells (mTNFα + zVAD, Sytox Green); assay type: cell-based; settings: Mus musculus, 10 ng/ml mTNFα and 20 μM zVAD, 6 hours, Sytox Green fluorescence
Experimental: (§1) Murine L929 cells (ATCC-CCL-1) were seeded at 10,000 cells/well in a 96-well plate. Cells were treated 48 hours after seeding with 10 ng/ml mTNFα (R&D Systems) and 20 μM zVAD (ChemShuttle) in the presence of different concentrations of compounds ranging from […] to 0.01 μM. Cells treated with 0.1% DMSO or cells treated with TNFα+zVAD were used as control and vehicle respectively.
Assay plates containing cells were incubated for 6 hours at 37° C. and 5% CO2. Necroptosis was assessed using Sytox Green Nucleic Acid Stain (Invitrogen). After incubation, 100 μL of Sytox dye at 2 μM (2×) diluted in HBSS 1× was added in each well and incubated for 15 min at room temperature. Fluorescence (500ex/530em) was recorded using the Cytation 5 microplate reader (Biotek).
(§2) Percentage of necroptosis inhibition was calculated as the percent compared to control and vehicle conditions which correspond to 100% and 0% respectively. The half-maximum necroptosis inhibition (IC50) levels were calculated using GraphPad Prism software and are shown in Table 3 (NT represents compound not tested).

[2] = test system: Human HT-29 cells; experiment: Necroptosis inhibition assay in HT-29 cells (hTNFα + zVAD + SMAC mimetic, Sytox Green/Hoechst); assay type: cell-based; settings: 10 ng/ml hTNFα, 20 μM zVAD and 100 nM SMAC mimetic, 6 hours, Sytox/Hoechst positive cells, read-out: HT29 necroptosis inhibition IC50
Experimental: as §1, with “Human HT-29” for “Murine L929”, “(ATCC-HTB-38)” for “(ATCC-CCL-1)”, “hTNFα” for “mTNFα”, “Systems),” for “Systems) and”, “(ChemShuttle) and 100 nM SMAC mimetic (MedChem Express)” for “(ChemShuttle)”, “TNFα+zVAD+SMAC mimetic” for “TNFα+zVAD”
Assay plates containing cells were incubated for 6 hours at 37° C. and 5% CO2. Necroptosis was assessed using Sytox Green Nucleic Acid Stain (Invitrogen) and Hoechst staining. After incubation, 100 μL of Sytox dye at 2 μM (2×) diluted in HBSS 1× was added to each well. At the same time, Hoechst stain is added to a final concentration of 10 μM and incubated for 15 min at room temperature. Images were taken for Sytox and Hoechst using the Cytation 5 microplate reader with DAPI and GFP filter cubes (Biotek). Sytox and Hoechst positive cells were counted with CellProfiler software.
as §2

SMILES	IC50 [1] [nM]	IC50 [2] [nM]
O=C(c1ccc(-c2ccc3nccc(Nc4ccc5scnc5c4)c3c2)c(F)c1)N1CCCC1 [Compound 241, (4-(4-(benzo[d]thiazol-5-ylamino)quinolin-6-yl)-3-fluorophenyl)(pyrrolidin-1-yl)methanone]	388	
O=C(c1ccc(-c2ccc3c(Nc4ccc5scnc5c4)ccnc3c2)c(F)c1)N1CCCC1 [Compound 242, (4-(4-(benzo[d]thiazol-5-ylamino)quinolin-7-yl)-3-fluorophenyl)(pyrrolidin-1-yl)methanone]	< 1000	
O=C(c1ccc(-c2ccc3nccc(Nc4ccc5scnc5c4)c3c2)c(F)c1)N1CCOCC1 [Compound 243, (4-(4-(benzo[d]thiazol-5-ylamino)quinolin-6-yl)-3-fluorophenyl)(morpholino)methanone]	< 1000	
CN(C)C(=O)c1ccc(-c2ccc3nccc(Nc4ccc5scnc5c4)c3c2)c(F)c1 [Compound 245, 4-(4-(benzo[d]thiazol-5-ylamino)quinolin-6-yl)-3-fluoro-N,N-dimethylbenzamide]	< 1000	
CN(C)C(=O)c1ccc(-c2ccc3c(Nc4ccc5scnc5c4)ccnc3c2)c(F)c1 [Compound 246, 4-(4-(benzo[d]thiazol-5-ylamino)quinolin-7-yl)-3-fluoro-N,N-dimethylbenzamide]	< 1000	
CC1CCCCN1C(=O)c1ccc(-c2ccc3nccc(Nc4ccc5scnc5c4)c3c2)c(F)c1 (stereo not shown) [Compound 247, (4-(4-(benzo[d]thiazol-5-ylamino)quinolin-6-yl)-3-fluorophenyl)(2-methylpiperidin-1-yl)methanone]	> 1000	
CC1CCCCN1C(=O)c1ccc(-c2ccc3c(Nc4ccc5scnc5c4)ccnc3c2)c(F)c1 (stereo not shown) [Compound 248, (4-(4-(benzo[d]thiazol-5-ylamino)quinolin-7-yl)-3-fluorophenyl)(2-methylpiperidin-1-yl)methanone]	< 1000	
O=C(c1ccc(-c2ccc3c(Nc4ccc5scnc5c4)ccnc3c2)c(F)c1)N1CCNCC1 [Compound 250, (4-(4-(benzo[d]thiazol-5-ylamino)quinolin-7-yl)-3-fluorophenyl)(piperazin-1-yl)methanone]	344	2530
O=C(c1ccc(-c2ccc3nccc(Nc4ccc5scnc5c4)c3c2)c(F)c1)N1CC2(CCOCC2)C1 [Compound 251, (4-(4-(benzo[d]thiazol-5-ylamino)quinolin-6-yl)-3-fluorophenyl)(7-oxa-2-azaspiro[3.5]nonan-2-yl)methanone]	582	822
O=C(c1ccc(-c2ccc3c(Nc4ccc5scnc5c4)ccnc3c2)c(F)c1)N1CC2(CCOCC2)C1 [Compound 252, (4-(4-(benzo[d]thiazol-5-ylamino)quinolin-7-yl)-3-fluorophenyl)(7-oxa-2-azaspiro[3.5]nonan-2-yl)methanone]	260	244
c1cc(Nc2ccc3scnc3c2)c2ccc(-c3ccc(C4CCNCC4)cc3)cc2n1 [Compound 253, N-(7-(4-(piperidin-4-yl)phenyl)quinolin-4-yl)benzo[d]thiazol-5-amine]	271	755
O=C1CN(Cc2ccc(-c3ccc4nccc(Nc5ccc6sccc6c5)c4c3)c(F)c2)CCN1 [Compound 256, 4-(4-(4-(benzo[b]thiophen-5-ylamino)quinolin-6-yl)-3-fluorobenzyl)piperazin-2-one]	> 10000	
O=C1CN(Cc2ccc(-c3ccc4nccc(Nc5ccc6[nH]ncc6c5)c4c3)c(F)c2)CCN1 [Compound 271, 4-(4-(4-(1H-indazol-5-ylamino)quinolin-6-yl)-3-fluorobenzyl)piperazin-2-one]	> 10000	
CN1CCN(C(=O)c2ccc(-c3ccc4nccc(Nc5ccc6scnc6c5)c4c3)c(F)c2)CC1=O [Compound 273, 4-(4-(4-(benzo[d]thiazol-5-ylamino)quinolin-6-yl)-3-fluorobenzoyl)-1-methylpiperazin-2-one]	1100	780
CN1CCN(C(=O)c2ccc(-c3ccc4c(Nc5ccc6scnc6c5)ccnc4c3)c(F)c2)CC1=O [Compound 274, 4-(4-(4-(benzo[d]thiazol-5-ylamino)quinolin-7-yl)-3-fluorobenzoyl)-1-methylpiperazin-2-one]	515	1190
O=C1CN(C(=O)c2ccc(-c3ccc4nccc(Nc5ccc6scnc6c5)c4c3)c(F)c2)CCN1 [Compound 275, 4-(4-(4-(benzo[d]thiazol-5-ylamino)quinolin-6-yl)-3-fluorobenzoyl)piperazin-2-one]	3820	689
O=C1CN(Cc2ccc(-c3ccc4nccc(Nc5ccc6occc6c5)c4c3)c(F)c2)CCN1 [Compound 287, 4-(4-(4-(benzofuran-5-ylamino)quinolin-6-yl)-3-fluorobenzyl)piperazin-2-one]	> 10000	
Cn1ncc2cc(Nc3ccnc4ccc(-c5ccc(CN6CCNC(=O)C6)cc5F)cc34)ccc21 [Compound 288, 4-(3-fluoro-4-(4-(1-methyl-1H-indazol-5-ylamino)quinolin-6-yl)benzyl)piperazin-2-one]	> 10000	
O=C1CN(Cc2ccc(-c3ccc4nccc(Nc5ccc6oncc6c5)c4c3)c(F)c2)CCN1 [Compound 289, 4-(4-(4-(benzo[d]isoxazol-5-ylamino)quinolin-6-yl)-3-fluorobenzyl)piperazin-2-one]	> 10000	
O=C(c1ccc(-c2ccc3nccc(Nc4ccc5scnc5c4)c3c2)nc1)N1CC2(CNC2)C1 [Compound 294, (6-(4-(benzo[d]thiazol-5-ylamino)quinolin-6-yl)pyridin-3-yl)(2,6-diazaspiro[3.3]heptan-2-yl)methanone]	> 10000	
O=C(c1ccc(-c2ccc3nccc(Nc4ccc5scnc5c4)c3c2)c(F)c1)N1CC2CNCC2C1 (stereo not shown) [Compound 298, (4-(4-(benzo[d]thiazol-5-ylamino)quinolin-6-yl)-3-fluorophenyl)(hexahydropyrrolo[3,4-c]pyrrol-2(1H)-yl)methanone]	< 10000	
O=C(c1ccc(-c2ccc3c(Nc4ccc5scnc5c4)ccnc3c2)c(F)c1)N1CC2CNCC2C1 (stereo not shown) [Compound 302, (4-(4-(benzo[d]thiazol-5-ylamino)quinolin-7-yl)-3-fluorophenyl)(hexahydropyrrolo[3,4-c]pyrrol-2(1H)-yl)methanone]	< 10000	
O=C(c1ccc(-c2ccc3nccc(Nc4ccc5scnc5c4)c3c2)c(F)c1)N1C[C@H]2C[C@@H](C1)N2 [Compound 304, (4-(4-(benzo[d]thiazol-5-ylamino)quinolin-6-yl)-3-fluorophenyl)((1R,5S)-3,6-diazabicyclo[3.1.1]heptan-3-yl)methanone]	< 10000	
O=C(c1ccc(-c2ccc3nccc(Nc4ccc5scnc5c4)c3c2)c(F)c1)N1[C@@H]2CNC[C@H]1C2 [Compound 308, (4-(4-(benzo[d]thiazol-5-ylamino)quinolin-6-yl)-3-fluorophenyl)((1R,5S)-3,6-diazabicyclo[3.1.1]heptan-6-yl)methanone]	< 10000	
Fc1cc(OC2CCNCC2)ccc1-c1ccc2c(Nc3ccc4scnc4c3)ccnc2c1 [Compound 309, N-(7-(2-fluoro-4-(piperidin-4-yloxy)phenyl)quinolin-4-yl)benzo[d]thiazol-5-amine]	< 10000	
O=C(c1ccc(-c2ccc3c(Nc4ccc5scnc5c4)ccnc3c2)c(F)c1)N1CCC2(CCNC2)CC1 [Compound 314, (4-(4-(benzo[d]thiazol-5-ylamino)quinolin-7-yl)-3-fluorophenyl)(2,8-diazaspiro[4.5]decan-8-yl)methanone]	< 10000	
Fc1cc(CN2CCNCC2)ccc1-c1ccc2nccc(Nc3ccc4sccc4c3)c2c1 [Compound 385, N-(benzo[b]thiophen-5-yl)-6-(2-fluoro-4-(piperazin-1-ylmethyl)phenyl)quinolin-4-amine]	> 10000	
Fc1cc(CN2CCNCC2)ccc1-c1ccc2nccc(Nc3ccc4occc4c3)c2c1 [Compound 386, N-(benzofuran-5-yl)-6-(2-fluoro-4-(piperazin-1-ylmethyl)phenyl)quinolin-4-amine]	> 10000	
Fc1cc(CN2CCNCC2)ccc1-c1ccc2nccc(Nc3ccc4[nH]ncc4c3)c2c1 [Compound 387, 6-(2-fluoro-4-(piperazin-1-ylmethyl)phenyl)-N-(1H-indazol-5-yl)quinolin-4-amine]	> 10000	
Cn1ncc2cc(Nc3ccnc4ccc(-c5ccc(CN6CCNCC6)cc5F)cc34)ccc21 [Compound 388, 6-(2-fluoro-4-(piperazin-1-ylmethyl)phenyl)-N-(1-methyl-1H-indazol-5-yl)quinolin-4-amine]	> 10000	
